{"source": "patent US7649013B2", "about": "“Methods of protecting against radiation injury” (priority 2003, dated 2010)", "key": {"[1]": {"test_system": "BRCA1 in human colon cancer cells (SW480)", "experiment": "Relative expression of cell cycle checkpoint genes, Human Cell-cycle Checkpoint GEArray Kit", "type": "cell-based", "conditions": "SW480, 2 μM, 4 hours, vs carrier alone", "protocol": "Exponentially growing human colon cancer cells (SW480) are treated with β-lapachone at 2 μM, or carrier alone control, for 4 hours. Total RNA is prepared by Trizol reagents. Relative expression levels of multiple genes involved in cell cycle checkpoint are determined with the Human Cell-cycle Checkpoint GEArray Kit (SuperArray Inc. Bethesda, Md.) (FIG. 3). The up-regulation of the E2F1 target BRCA1 in β-lapachone treated cancer cells is another indication of E2F1 activation. BRCA1 is a tumor suppressor involved in many roles within the cell including DNA repair."}, "[2]": {"test_system": "C57BL/6J inbred strain female mice", "experiment": "Thymic cellularity after whole body irradiation, hematoxylin-eosin sections (Example 7a)", "type": "in vivo", "conditions": "40 mg/kg i.p. 0.5 hour before 8 Gy; day five", "protocol": "(§1) β-lapachone is prepared at 10 mg/ml in 40% hydroxypropyl-beta-cyclodextrin (HPBCD). C57BL/6J inbred strain female mice (4-5 weeks old) are organized into three groups of six mice each: Group I mice receive no radiation, no β-lapachone, and no carrier; Group II mice receive radiation and are injected with carrier (40% HPBCD 4 ml/kg body weight); and Group III mice are injected intraperitoneally at 0.5 hour before irradiation with β-lapachone (40 mg/kg body weight). Whole body irradiation of animals with 8 Gy of γ-rays is carried out in air at room temperature in a gamma chamber (Gammacell 40 Exactor), with a dose-rate of 1.05 Gy/min. This radiation dose is within the range of equivalent human exposures predicted in many scenarios of radiologic or nuclear terrorist attack. Following irradiation, animals are maintained in a climate-controlled animal facility. Three mice in each of Groups I, II, and III are sacrificed on day five following irradiation, and an analysis of thymic cellularity is performed for each. The remaining mice are sacrificed on day eight following irradiation, and an analysis of thymic cellularity is performed for each. Thymic cellularity is qualitatively assessed in sections stained with hematoxylin-eosin following standard procedures."}, "rats": {"test_system": "rats", "conditions": "p.o. daily for one month; cited from earlier work"}, "[3]": {"test_system": "C57BL/6J inbred strain female mice", "experiment": "Histologic spleen cellularity after whole body irradiation, hematoxylin-eosin sections (Example 7c)", "type": "in vivo", "conditions": "40 mg/kg i.p. 0.5 hour before 5 Gy (nonlethal); five days after irradiation", "protocol": "as §1, with “Spleen cellularity is qualitatively assessed following whole body gamma irradiation in mice, with and without pretreatment with β-lapachone, as follows. β-lapachone is” for “β-lapachone is”, “8 Gy (lethal radiation) or 5 Gy (sublethal radiation) of γ-rays” for “8 Gy of γ-rays”, “analysis of splenic cellularity is” for “analysis of thymic cellularity is”, “for each. […] Splenic cellularity is” for “for each. The remaining mice are sacrificed on day eight following irradiation, and an analysis of thymic cellularity is performed for each. Thymic cellularity is”"}, "[4]": {"test_system": "C57BL/6J inbred strain female mice", "experiment": "Radiation-induced leukopenia after whole body irradiation, leukocyte count (Example 8)", "type": "in vivo", "conditions": "for L % (percentage of lymphocytes) / M % (percentage of monocytes) / N % (percentage of neutrophils) / WBC: 40 mg/kg i.p. 0.5 hour before 8 Gy", "protocol": "The effect of β-lapachone pre-treatment on radiation-induced leukopenia (e.g., radiation-induced neutropenia, monocytopenia, or lymphocytopenia, or subcombinations thereof) following whole body gamma irradiation in mice, with and without pretreatment with β-lapachone, is assessed as follows. β-lapachone is prepared at 10 mg/ml in 40% hydroxypropyl-beta-cyclodextrin (HPBCD). C57BL/6J inbred strain female mice (4-5 weeks old) are organized into three groups of six mice each: Group I mice receive no radiation, no β-lapachone, and no carrier; Group II mice receive radiation and are injected with carrier (40% HPBCD 4 ml/kg body weight); and Group III mice are injected intraperitoneally at 0.5 hour before irradiation with β-lapachone (40 mg/kg body weight). Whole body irradiation of animals with 8 Gy (lethal radiation) or 5 Gy (sublethal radiation) of γ-rays is carried out in air at room temperature in a gamma chamber (Gammacell 40 Exactor), with a dose-rate of 1.05 Gy/min. This radiation dose is within the range of equivalent human exposures predicted in many scenarios of radiologic or nuclear terrorist attack. Following irradiation, animals are maintained in a climate-controlled animal facility. Three mice in each of Groups I, II, and III are sacrificed on day five following irradiation, and an analysis of radiation-induced leukopenia is performed for each. The remaining mice are sacrificed on day eight following irradiation, and an analysis of radiation-induced leukopenia is performed for each. Leukocytes are counted automatically using a hemacytometer counter in the animal facility at MIT."}, "[5]": {"test_system": "Chk2 in human cervical cancer cells (HeLa)", "experiment": "Chk2 phosphorylation by immunoblotting of whole cell lysates", "type": "cell-based", "conditions": "4 μM", "protocol": "Human cervical cancer cells (HeLa) are treated with 4 μM β-lapachone for 0, 3, 10, 30, 60 and 120 minutes. Whole cell lysates are prepared, separated by SDS-PAGE, and analyzed by immunoblotting with anti-Chk2 and anti-phosphorylated-Chk2 antibodies."}}, "note": "Entries after “also recorded” stand apart in the source; their conditions may differ.", "data": [{"compound": "CC1(C)CCC2=C(O1)c1ccccc1C(=O)C2=O", "note": "[β-lapachone, 3,4-dihydro-2,2-dimethyl-2H-naphtho[1,2-b]pyran-5,6-dione]", "values": [{"measurement": "BRCA1 relative expression level", "setting": "[1]", "result": "induces increased expression; also recorded: up-regulation"}, {"measurement": "Thymic cellularity in thymic sections (FIG. 8)", "setting": "[2]", "result": "preserves thymic cellularity"}, {"measurement": "Maximum tolerated dose", "setting": "rats", "result": 200, "unit": "mg/kg"}, {"measurement": "Spleen structure and cellularity judged histologically (FIG. 10)", "setting": "[3]", "result": "protective effect on spleen structure and cellularity"}, {"measurement": "L % (percentage of lymphocytes)", "setting": "[4]; Day 5", "result": 66.24, "unit": "%"}, {"measurement": "M % (percentage of monocytes)", "setting": "[4]; Day 5", "result": 8.13, "unit": "%"}, {"measurement": "N % (percentage of neutrophils)", "setting": "[4]; Day 5", "result": 19.1, "unit": "%"}, {"measurement": "WBC", "setting": "[4]; Day 5", "result": "0.53 ± 0.4 1000 cells/ml"}, {"measurement": "L % (percentage of lymphocytes)", "setting": "[4]; Day 8", "result": 52.69, "unit": "%"}, {"measurement": "M % (percentage of monocytes)", "setting": "[4]; Day 8", "result": 13.23, "unit": "%"}, {"measurement": "N % (percentage of neutrophils)", "setting": "[4]; Day 8", "result": 20.29, "unit": "%"}, {"measurement": "WBC", "setting": "[4]; Day 8", "result": "0.37 ± 0.24 1000 cells/ml"}, {"measurement": "Protection against radiation-induced neutropenia, monocytopenia, and lymphocytopenia", "setting": "[4]; pretreatment, 8 Gy, day 5 and day 8, P<0.05", "result": "partially protects"}, {"measurement": "Time at which phosphorylated Chk2 levels appear", "setting": "[5]", "result": 10, "unit": "min"}, {"measurement": "Phosphorylated Chk2 (p-Chk2) level / proportion of phosphorylated Chk2", "setting": "[5]; 0-120 minutes", "result": "induces an increase in the proportion of phosphorylated Chk2; also recorded: sustained increase"}, {"measurement": "Total amount of Chk2 within the cells", "setting": "[5]; 0-120 minutes", "result": "remains unchanged"}]}]}
